The record followed here is patent publication EP0384522A1, “Antiviral tetrahydroimidazo[1,4]benzodiazepin-2-thiones” (priority 1989, dated 1990).

What all share (type): cell-based
One data set can be described thus: in vitro. Conditions: human, mt-4 cells, CD₅₀ (50% cytotoxic dose). The method, then:
(§1) A rapid, sensitive and automated assay procedure was used for the in-vitro evaluation of anti-HIV agents. An […] T4-cell line, MT-4, which was previously shown (Koyanagi et al., Int. J. Cancer, 36, 445-451, 1985) to be highly susceptible to and permissive for HIV infection, served as the target cell line. Inhibition of the HIV-induced cytopathic effect was used as the end point. The viability of both HIV- and mock-infected cells was assessed spectrophotometrically via the in-situ reduction of 3-(4,5-dimethylthiazol-2-yl)-2,5-diphenyltetrazolium bromide (MTT). The 50% cytotoxic dose (CD₅₀ in µg/ml) was defined as the concentration of compound that reduced the absorbance of the mock-infected control sample by 50%. The percent protection achieved by the compound in HIV-infected cells was calculated by the following formula: [formula] whereby (ODT)HIV is the optical density measured with a given concentration of the test compound in HIV-infected cells; (ODC)HIV is the optical density measured for the control untreated HIV-infected cells; (ODC)MOCK is the optical density measured for the control untreated mock-infected cells; all optical density values were determined at 540 nm. The dose achieving 50% protection according to the above formula was defined as the 50% effective dose (ED₅₀ in µg/ml). The ratio of CD₅₀ to ED₅₀ was defined as the selectivity index (SI).

In another data set the test system is HIV. As to the kind of experiment: Inhibition of the HIV-induced cytopathic effect in MT-4 cells (MTT assay). The conditions noted are these: for EC50: Human immunodeficiency virus 1, MT4, dose achieving 50% protection of HIV-infected MT-4 cells, read-out: ED₅₀ (50% effective dose); for EC50 / ED₅₀ (50% effective dose): MTT, 540 nm; for ED₅₀ (50% effective dose): dose achieving 50% protection of HIV-infected MT-4 cells. The method, then: as §1
For orientation: Protection from cytopathic effect is a common read-out in antiviral testing.

For another data set, the system named is mock-infected MT-4 cells. As to the kind of experiment: in vitro. The conditions noted are these: human. The procedure: as §1

Converted amounts (≈) assume the structure as drawn. Where two headings read alike, the source gives them in different places.

Consider `CC(C)=CCN1Cc2cccc3[nH]c(=S)n(c23)CC1C` (racemic) [compound 4, (±)-4,5,6,7-tetrahydro-5-methyl-6-(3-methyl-2-butenyl)imidazo[4,5,1-jk][1,4]benzodiazepine-2(1H)-thione], for which half-maximal cytotoxicity in the data set “in vitro” (CC50) was put at 25 µg/mL (≈ 87 µM). For the same molecule, in the data set with HIV, the EC50 was 0.013 µg/mL (≈ 0.0452 µM). Besides, the “SI (selectivity index)” value in the data set on HIV (ratio of CD₅₀ to ED₅₀) is listed as 1923.

`CCCN1Cc2cccc3[nH]c(=S)n(c23)CC1C` (stereo not drawn) [compound 1, 4,5,6,7-tetrahydro-5-methyl-6-propylimidazo-[4.5.1-jk][1,4]benzodiazepine-2(1H)-thione]: half-maximal cytotoxicity in the data set “in vitro” (CC50) was put at 147 µg/mL (≈ 562 µM). Further, the EC50 in the data set on HIV came to 0.155 µg/mL (≈ 0.593 µM). For the same molecule, the “SI (selectivity index)” value with HIV (ratio of CD₅₀ to ED₅₀) was determined as 948.

In the case of `CC(C)=CCN1Cc2cc(Cl)cc3[nH]c(=S)n(c23)C[C@@H]1C` [compound 3, (+)-(S)-9-chloro-4,5,6,7-tetrahydro-5-methyl-6-(3-methyl-2-butenyl)imidazo[4,5,1-jk][1,4]benzodiazepine-2(1H)-thione], the “CD₅₀ (50% cytotoxic dose)” value with mock-infected MT-4 cells came out at 10 µg/mL. Also, in the data set with HIV, the “SI (selectivity index)” value was 20400 and the “ED₅₀ (50% effective dose)” value was 0.0005 µg/mL.

Regarding `CC(C)=CCN1Cc2cccc3[nH]c(=S)n(c23)C[C@@H]1C` [compound 5, (+)-(S)-4,5,6,7-tetrahydro-5-methyl-6-(3-methyl-2-butenyl)imidazo[4,5,1-jk] [1,4]benzodiazepine-2(1H)-thione], the midpoint of cytotoxicity in the data set “in vitro”, the CC50, lay at 325 µg/mL (≈ 1130 µM). Also, the EC50 in the data set on HIV was determined as 0.008 µg/mL (≈ 0.0278 µM). Also, the “SI (selectivity index)” value with HIV (ratio of CD₅₀ to ED₅₀) is given as 40625.

Turning to `CC(C)=CCN1Cc2cccc3[nH]c(=S)n(c23)C[C@H]1C` [compound 6], the half-maximal cytotoxic concentration (CC50) (commonly the concentration at which the toxic effect on the cells reaches its halfway point) in “in vitro” is not below 250 µg/mL. The EC50 in the data set with HIV is 0.045 µg/mL (≈ 0.157 µM). Also, the “SI (selectivity index)” value in the data set on HIV (ratio of CD₅₀ to ED₅₀) is listed as “≧5555”.

`CC(C)=CCN1Cc2cc(Cl)cc3[nH]c(=S)n(c23)C[C@@H]1C` [compound 7]: in the data set on mock-infected MT-4 cells, the “CD₅₀ (50% cytotoxic dose)” value is 23 µg/mL. Moreover, in the data set on HIV, the “SI (selectivity index)” value was determined as 12778 and the “ED₅₀ (50% effective dose)” value was 0.0018 µg/mL.

`C=C(C)CN1Cc2cccc3[nH]c(=S)n(c23)C[C@@H]1C` [compound 8] came in with a cytotoxic concentration (CC50) in the data set “in vitro” of 4.6 µg/mL (≈ 16.8 µM). Moreover, the EC50 in the data set with HIV was determined as 0.0126 µg/mL (≈ 0.0461 µM). Moreover, the “SI (selectivity index)” value in the data set with HIV (ratio of CD₅₀ to ED₅₀) is 365.

Regarding `C[C@H]1Cn2c(=S)[nH]c3cccc(c32)CN1CC1CC1` [compound 9], the half-maximal cytotoxic concentration (CC50) in the data set “in vitro” was more than 250 µg/mL. Also, the EC50 with HIV turned out to be 0.0166 µg/mL (≈ 0.0607 µM). In the data set with HIV (ratio of CD₅₀ to ED₅₀), the “SI (selectivity index)” value is recorded as more than 15029.
